From PubChem BioAssay AID651630 (Sanford-Burnham Center for Chemical Genomics, 2012) come the findings set out here.

One test concerns DAPI. Description: triacylglycerol accumulation inhibitor potency, dose response, cell-based, panel, Nile Red and DAPI fluorescence, H9c2 (AID 651630).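 Further: cells exposed to compound overnight before fixation and staining.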 Particulars: H9c2 cells, DAPI nuclear fluorescence (cytotoxicity counter-readout), oleic acid.
Another test relates to TAG. The description is as above. Particulars: H9c2 cells, Nile Red TAG fluorescence, oleic acid.

Activity calls are given as the source filed them.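 How the source made its calls: active means lipid-stain IC50 at or below a set limit, with nuclear-stain toxicity IC50 at least five times higher; inactive means the rest.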

One may read the IC50 as the concentration at which inhibition is half-maximal.

In the case of `Cc1ccc(NC(=O)c2cc([N+](=O)[O-])ccc2NCc2cccnc2)cc1Cl`, the IC50 cytotoxicity (DAPI nuclear signal decrease) in the test with DAPI (mean of runs) is > 25 µM (inactive); in the test with DAPI (run 1) it was above 25 µM; in the test on DAPI (run 2), above 25 µM. Also, the IC50 in the test with TAG (mean of runs) was 14 µM; with TAG (run 1) it was 10.5 µM; with TAG (run 2), 17.6 µM.
Consider `CCCCN1C(=O)/C(=C/C=C2/C=Cc3ccccc3N2CC)SC1=S`, for which the IC50 cytotoxicity (DAPI nuclear signal decrease) in the test on DAPI (run 1) and in the test with DAPI (run 2) was above 25 µM each time. Also, the IC50 in the test with TAG (mean of runs) is 4.3 µM; in the test on TAG (run 1), 2.4 µM; in the test on TAG (run 2) it was 6.2 µM.
For the compound `CCCC[C@H](CN[C@@H](CNC)[C@H](C)CC)NCCC12CCC(CC1)C2`, the results for the IC50 cytotoxicity (DAPI nuclear signal decrease) in the test with DAPI (run 1) and in the test on DAPI (run 2) were 17.8 µM and above 25 µM, respectively. In addition, the IC50 is > 25 µM (inactive) in the test on TAG (mean of runs), above 25 µM in the test with TAG (run 1) and above 25 µM with TAG (run 2).
`COc1cc(C(CCN2CCCCC2)c2c(OC)cc(OC)c3c(-c4ccccc4)cc(=O)oc23)cc(OC)c1OC` (centres undefined): the figures for the IC50 cytotoxicity (DAPI nuclear signal decrease) with DAPI (mean of runs), in the test with DAPI (run 1) and with DAPI (run 2) were > 25 µM (inactive), above 25 µM and above 25 µM, respectively. Also, the IC50 in the test with TAG (mean of runs) is > 25 µM (inactive); in the test on TAG (run 1), above 25 µM; in the test with TAG (run 2), above 25 µM.
With `CN(Cc1ccc(Cl)cc1)C(=O)CCl`, the results for the IC50 cytotoxicity (DAPI nuclear signal decrease) in the test on DAPI (mean of runs), in the test on DAPI (run 1) and in the test with DAPI (run 2) were > 25 µM (inactive), above 25 µM and above 25 µM, respectively. Further, the IC50 in the test on TAG (mean of runs) was > 25 µM (inactive); in the test on TAG (run 1), above 25 µM; with TAG (run 2) it was above 25 µM.
Turning to `C=CCC[C@@H](Cc1ccc(F)cc1)C(=O)OC[C@@H](Cc1c[nH]c2ccccc12)NC(=O)[C@@H](CC=C)CC(=O)N(CCO)Cc1ccccc1`, the IC50 cytotoxicity (DAPI nuclear signal decrease) in the test on DAPI (mean of runs) was > 25 µM (inactive); in the test with DAPI (run 1), above 25 µM; with DAPI (run 2), above 25 µM. Further, the IC50 in the test with TAG (mean of runs) is 8.26 µM; in the test on TAG (run 1) it was 7.1 µM; with TAG (run 2), 9.42 µM.
Turning to `Cc1cc(C)nc(NC(=NCCc2c[nH]c3ccccc23)NC(=O)Nc2ccc(Cl)c(Cl)c2)n1`, the figures for the IC50 cytotoxicity (DAPI nuclear signal decrease) in the test on DAPI (mean of runs), with DAPI (run 1) and in the test with DAPI (run 2) were > 25 µM (inactive), above 25 µM and above 25 µM, respectively. In addition, the values for the IC50 in the test on TAG (mean of runs), in the test on TAG (run 1) and with TAG (run 2) were 10.2 µM, 8.52 µM and 11.8 µM, respectively.
Regarding `Cc1cccc(Nc2nc(NCc3ccco3)nc(N3CCOCC3)n2)c1`, the IC50 cytotoxicity (DAPI nuclear signal decrease) with DAPI (mean of runs) is > 25 µM (inactive); in the test with DAPI (run 1), above 25 µM; in the test with DAPI (run 2) it was above 25 µM. In addition, the IC50 with TAG (mean of runs) is > 25 µM (inactive); in the test on TAG (run 1) it was above 25 µM; with TAG (run 2), above 25 µM.
Turning to `COc1ccc(-c2csc(NC(=S)NC(=O)/C=C/c3ccco3)n2)cc1Br`, the IC50 cytotoxicity (DAPI nuclear signal decrease) in the test on DAPI (mean of runs) is > 25 µM (inactive); in the test with DAPI (run 1) it was above 25 µM; with DAPI (run 2), above 25 µM. In addition, the values for the IC50 in the test on TAG (mean of runs), with TAG (run 1) and with TAG (run 2) were 8 µM, 5.89 µM and 10.1 µM, respectively.
With `COc1cccc(NC(=O)N2CCc3nc(Nc4ccc(C(C)C)cc4)ncc3C2)c1`, the IC50 cytotoxicity (DAPI nuclear signal decrease) in the test with DAPI (run 1) and in the test with DAPI (run 2) was above 25 µM each time. The values for the IC50 in the test with TAG (mean of runs), in the test on TAG (run 1) and in the test with TAG (run 2) were 2.73 µM, 2.94 µM and 2.52 µM, respectively.
As for `Cc1cc(C)n(-c2nc3c(c(=O)[nH]c(=O)n3C)n2CC(O)COc2ccc(Cl)cc2Cl)n1` (centres undefined), the figures for the IC50 cytotoxicity (DAPI nuclear signal decrease) in the test with DAPI (mean of runs), in the test with DAPI (run 1) and in the test on DAPI (run 2) were > 25 µM (inactive), above 25 µM and above 25 µM, respectively. Besides, the IC50 in the test on TAG (run 1) was 11.2 µM; in the test with TAG (run 2), above 25 µM.
As for `CCN(CC)CCCN(C(=O)c1cccs1)c1nc(-c2ccc(OC)cc2)cs1`, the IC50 cytotoxicity (DAPI nuclear signal decrease) was > 25 µM (inactive) in the test with DAPI (mean of runs), above 25 µM in the test with DAPI (run 1) and above 25 µM in the test with DAPI (run 2). Also, the IC50 was 10.3 µM in the test with TAG (mean of runs), 10.5 µM in the test with TAG (run 1) and 10 µM in the test on TAG (run 2).
Take `O=P(O)(O)CN1CCNCCN(CP(=O)(O)O)CCNCC1`: the results for the IC50 cytotoxicity (DAPI nuclear signal decrease) in the test on DAPI (mean of runs), in the test with DAPI (run 1) and with DAPI (run 2) were > 25 µM (inactive), above 25 µM and above 25 µM, respectively. Besides, the IC50 in the test with TAG (run 1) is 24.7 µM; in the test with TAG (run 2), above 25 µM.
For the compound `Cc1ccc(-c2nn3c(C)nnc3c3ccccc23)cc1S(=O)(=O)NC(C)c1ccccc1` (centres undefined), the IC50 cytotoxicity (DAPI nuclear signal decrease) in the test on DAPI (mean of runs) is > 25 µM (inactive); in the test on DAPI (run 1), above 25 µM; in the test with DAPI (run 2) it was above 25 µM. In addition, the IC50 in the test with TAG (mean of runs) was 19.7 µM (inactive); in the test on TAG (run 1) it was 18.7 µM; in the test on TAG (run 2), 20.6 µM.
Regarding `CC1(C)CC(=O)C2=C(C1)Oc1nc3ccccc3cc1C2C(C#N)C#N` (centres undefined), the values for the IC50 cytotoxicity (DAPI nuclear signal decrease) with DAPI (mean of runs), in the test with DAPI (run 1) and with DAPI (run 2) were 12.7 µM (inactive), 11.4 µM and 14 µM, respectively. In addition, the IC50 is 17.2 µM (inactive) in the test on TAG (mean of runs), 16.5 µM with TAG (run 1) and 17.8 µM with TAG (run 2).
On to `Cc1ccccc1OCCNc1cc(N2CC(C)NC(C)C2)ccc1[N+](=O)[O-]` (centres undefined), for which the figures for the IC50 cytotoxicity (DAPI nuclear signal decrease) with DAPI (mean of runs), in the test with DAPI (run 1) and in the test with DAPI (run 2) were > 25 µM (inactive), above 25 µM and above 25 µM, respectively. In addition, the IC50 with TAG (mean of runs) was 13.1 µM; in the test with TAG (run 1), 14.6 µM; in the test on TAG (run 2) it was 11.6 µM.
For `Cn1c(N)c(C(=O)COC(=O)c2ccc([N+](=O)[O-])o2)c(=O)n(C)c1=O`, the IC50 cytotoxicity (DAPI nuclear signal decrease) with DAPI (mean of runs) is 19.1 µM (inactive); in the test on DAPI (run 1) it was 18.4 µM; in the test on DAPI (run 2) it was 19.8 µM. Further, the IC50 in the test with TAG (mean of runs) is 10.1 µM; in the test with TAG (run 1) it was 8.87 µM; in the test on TAG (run 2), 11.3 µM.
With `COc1ccc(-c2cc3nc(-c4ccccc4)cc(N4CCN(C(=O)c5ccccc5)CC4)n3n2)cc1`, the IC50 cytotoxicity (DAPI nuclear signal decrease) in the test on DAPI (mean of runs) was > 25 µM (inactive); in the test on DAPI (run 1), above 25 µM; with DAPI (run 2), above 25 µM. Moreover, the IC50 was > 25 µM (inactive) in the test with TAG (mean of runs), above 25 µM in the test on TAG (run 1) and above 25 µM in the test with TAG (run 2).
Consider `N#CCC(=O)N/N=C/c1cn(Cc2ccc(Cl)c(Cl)c2)c2ccccc12`, for which the IC50 cytotoxicity (DAPI nuclear signal decrease) with DAPI (mean of runs) was > 25 µM (inactive); in the test on DAPI (run 1) it was above 25 µM; in the test on DAPI (run 2) it was above 25 µM. Moreover, the values for the IC50 with TAG (run 1) and in the test with TAG (run 2) were 19.9 µM and above 25 µM, respectively.
As to `CC1(C)Cc2nc3sc4c(SCC(=O)NCc5ccco5)ncnc4c3cc2CO1`, the IC50 cytotoxicity (DAPI nuclear signal decrease) in the test with DAPI (mean of runs) was > 25 µM (inactive); in the test on DAPI (run 1), above 25 µM; in the test with DAPI (run 2), above 25 µM. Besides, the IC50 in the test with TAG (mean of runs) was > 25 µM (inactive); in the test with TAG (run 1) it was above 25 µM; with TAG (run 2), above 25 µM.
In the case of `CC(=O)Nc1ccc(-c2ccnc3c2CC(C(=O)NCc2cccc(Cl)c2)O3)cc1` (centres undefined), the results for the IC50 cytotoxicity (DAPI nuclear signal decrease) with DAPI (mean of runs), in the test on DAPI (run 1) and in the test with DAPI (run 2) were > 25 µM (inactive), above 25 µM and above 25 µM, respectively. For the same compound, the figures for the IC50 with TAG (mean of runs), in the test on TAG (run 1) and with TAG (run 2) were 13.3 µM, 15.9 µM and 10.7 µM, respectively.
For the compound `Cc1cccc2c(N=Nc3ccc(S(=O)(=O)Nc4ccc(Cl)cc4)cc3[N+](=O)[O-])c(O)[nH]c12`, the IC50 cytotoxicity (DAPI nuclear signal decrease) was > 25 µM (inactive) with DAPI (mean of runs), above 25 µM in the test on DAPI (run 1) and above 25 µM with DAPI (run 2). For the same compound, the IC50 was 12.2 µM in the test with TAG (mean of runs), 16.5 µM in the test on TAG (run 1) and 7.89 µM in the test on TAG (run 2).
Turning to `COc1ccc([C@H]2C[C@H](O)[C@@H](n3cc(-c4ccc(F)cc4)nn3)CN2Cc2cccs2)cc1`, the IC50 cytotoxicity (DAPI nuclear signal decrease) in the test with DAPI (run 1) is 23.6 µM; with DAPI (run 2), above 25 µM. The IC50 in the test with TAG (mean of runs) was 18.3 µM (inactive); in the test on TAG (run 1) it was 12.2 µM; with TAG (run 2), 24.3 µM.
For the compound `CCC(=O)Nc1ccc(-c2nnc(-c3ccccc3)o2)cc1`, the values for the IC50 cytotoxicity (DAPI nuclear signal decrease) in the test with DAPI (mean of runs), in the test on DAPI (run 1) and in the test on DAPI (run 2) were > 25 µM (inactive), above 25 µM and above 25 µM, respectively. Also, the IC50 in the test with TAG (mean of runs) was > 25 µM (inactive); with TAG (run 1), above 25 µM; in the test on TAG (run 2), above 25 µM.
As for `CCN1CCN(c2ncc3c(n2)CC(c2cc(OC)c(OC)c(OC)c2)CC3=O)CC1` (centres undefined), the values for the IC50 cytotoxicity (DAPI nuclear signal decrease) in the test on DAPI (mean of runs), in the test on DAPI (run 1) and with DAPI (run 2) were > 25 µM (inactive), above 25 µM and above 25 µM, respectively. Further, the results for the IC50 in the test with TAG (mean of runs), with TAG (run 1) and in the test on TAG (run 2) were > 25 µM (inactive), above 25 µM and above 25 µM, respectively.
As for `COc1cc(NC(=O)c2cc([N+](=O)[O-])ccc2NC(=O)CN2CCN(c3ccccn3)CC2)cc(OC)c1`, the IC50 cytotoxicity (DAPI nuclear signal decrease) in the test on DAPI (mean of runs) is > 25 µM (inactive); with DAPI (run 1), above 25 µM; with DAPI (run 2), above 25 µM. The IC50 in the test on TAG (mean of runs) was 12.6 µM; in the test with TAG (run 1), 13.3 µM; in the test on TAG (run 2), 11.9 µM.
`COc1cccc(-c2nc(-c3ccc(NC(=O)Cc4ccccc4OC)cc3)no2)c1`: the IC50 cytotoxicity (DAPI nuclear signal decrease) with DAPI (run 1) and in the test on DAPI (run 2) was above 25 µM in each case. Besides, the results for the IC50 in the test with TAG (mean of runs), in the test with TAG (run 1) and in the test on TAG (run 2) were 4.52 µM, 3.4 µM and 5.64 µM, respectively.
